Like-named read-outs stand apart in the source and are kept apart here.
How the values were obtained:
HIV-1 = assay: Anti-HIV-1 activity, p24 antigen assay in infected PBMC (Example 1); type: cell-based; conditions: for anti-HIV activity, in words: compared with parent AZT derivatives
Experimental: Subsequently, cells were cultured in 96-well microtiter plates (100 μl/well; 2×10^6/ml, triplicate wells) in the presence and absence of various concentrations (0.00 μM to 100 μM) of drugs for 7 days. Aliquots of culture supernatants were removed from the wells on the 7th day after infection for p24 antigen enzyme immunoassay as an indication of viral replication. Erice et al. Antimicrob. Agents and Chemother. […] Agents and Chemother. […] Percent inhibition of virus replication was calculated by comparing the p24 antigen values from the test drug-treated infected cells with p24 antigen values from untreated infected cells. […] Cell viability was quantified by a colorimetric […] assay. F. M. Uckun et al., Antimicrob. Agents and Chemother.

human sperm = assay: Sperm motility assay by CASA (Example 1); type: cell-based; conditions: for spermicidal activity, in words: compared with related derivatives; for EC50: 3 hours incubation at 37° C., CASA, read-out: EC50, sperm motility
Experimental: All donor specimens were obtained after informed consent and in compliance with the guidelines of the Wayne Hughes Institute Institutional Review Board. Motile sperm (≧10×10^6/ml), were suspended in 0.5 ml of Biggers, Whitten, and Whittingam's medium (BWW) containing 25 mM HEPES (Irvine Scientific, Santa Ana, Calif.), and 0.3% bovine serum albumin (BSA; Fraction V, Sigma Chemical Co, St. Louis, Mo.) in the presence and absence of serial two-fold dilutions of test substance (300 μM to 4.6 μm) in 1% DMSO. The stock solutions of synthetic WHI compounds were prepared in DMSO (10 mg/ml) and diluted in DMSO to yield the desired concentrations. Corresponding volume of DMSO (1%) was added to control tubes. N-9 was diluted in BWW-0.3% BSA (pH 7.4) to yield the desired concentrations (4.6 to 300 μM). After 3 hours of incubation at 37° C., the percentage of motile sperm was evaluated by computer-assisted sperm analysis (CASA) as described [L. J. Burkman, Fertil. Steril. […] The percent motilities were compared with sham-treated control suspensions of motile sperm. […] Non-linear regression analyses were used to determine the EC50 values from the concentration effect curves using GraphPad PRISM software (San Diego, Calif.).
For evaluating sperm motion kinematics using CASA, 4 μl each of sperm suspension was loaded into two 20-μm Microcell chambers (Conception Technologies) that was placed onto a counting chamber at 37° C. At least 5-8 fields per chamber were scanned for analysis using a Hamilton Thorne Integrated Visual Optical System (IVOS), version 10 instrument (Hamilton Thorne Research Inc., Danvers, Mass.). Each field was recorded for 30 seconds. […] The performance of the analyzer was periodically checked using the play-back function. The attributes of sperm kinematic parameters evaluated included numbers of motile (MOT) and progressively (PRG) motile sperm; curvilinear velocity (VCL; a measure of the total distance traveled by a given sperm during the acquisition divided by the time elapsed); average path velocity (VAP; the spatially averaged path that eliminates the wobble of the sperm head), straight line velocity (VSL; the straight-line distance from beginning to end of track divided by time taken), beat cross frequency (BCF, frequency of sperm head crossing sperm average path), the amplitude of lateral head displacement (ALH; the mean width of sperm head oscillation) and the derivatives, straightness ([…]); linearity (LIN=100×VSL/VCL; departure of sperm track from a straight line). Data from each individual cell track were recorded and analyzed. At least 200 motile sperm were analyzed for each aliquot sampled.

sperm acrosome = assay: Sperm acrosome and membrane integrity by FITC-lectin staining, confocal, SEM and TEM (Example 4); type: cell-based, human; conditions: 100 μM WHI compounds or 10 μM Cal A23187, 3 hours
Experimental: The percentages of sperm with an intact acrosome were evaluated by fluorescence microscopy (Olympus BX-60) following fixation and ethanol permeabilization of the sperm pellets and subsequent staining with fluorescein (FITC)-conjugated Pisum sativum lectin (Sigma). In positive control sperm, the acrosome reaction was induced by incubating (3 hours at 37° C.) the sperm suspension with 10 μm calcium ionophore (Cal) A23187 (Sigma). […] The percentage of sperm positive for PI were determined by flow cytometry using a FACS Vantage flow cytometer (Becton Dickinson and Co., Mountain View, Calif.). The sperm in the swim-up fractions were identified by their characteristic forward and 90° angle light scattering properties [O. J. D'Cruz and G. G. Haas, Jr. Fertil. Steril. 58, 633 (1992)]. All analyses were done using the 488-nm excitation from an krypton/argon laser with a 635-nm band pass filter for PI emission. The percentage of sperm positive for PI staining were determined using cutoff signals for membrane-intact motile sperm.
Ethanol permeabilized and air-dried sperm smears were stained sequentially with the three fluorescent markers, FITC-Pisum sativum, TOTO-3 iodide, and Nile red, each marking a different target (acrosome, nucleus, and plasma membrane of permeabilized sperm respectively). Samples were examined under a BioRad MRC-1024 Laser Scanning Confocal Microscope (BioRad Laboratories, Hercules, Calif.) equipped with a krypton/argon mixed gas laser (excitation lines 488, 568, and 647 nm) and mounted on a Nikon Eclipse E800 series upright microscope. The fluorescence emission of fluorescein, TOTO-3 iodide, and Nile red from the acrosomal region, nucleus, and the plasma membrane of sperm after ethanol permeabilization were simultaneously detected using the 598/40 nm, 522 DF32, and 680 DF32 emission/filter respectively. Confocal images were obtained using a Nikon 60× (NA 1.35) objective lens and Kalman collection filter. Digitized images were processed with the Adobe Photoshop software (Adobe Systems, Mountain View, Calif.). Final images were printed using a Fujix Pictography 3000 (Fuji Photo Film Co., Tokyo, Japan) color printer.
High-resolution low-voltage scanning electron microscopy was utilized for topographical imaging of different membrane domains over the sperm head as described [M. H. Stoffel et al. Molecular. Reprod. Develop. 34, 175 (1993); S. L. Erlandsen et al. Scanning 11, 169 (1989)]. […] Washed sperm suspensions were placed on 0.1% poly-L-lysine-coated glass chips and allowed to adhere to the glass over a 60 minute incubation period on ice. The supernatants were decanted, and adherent cells were fixed in 1% paraformaldehyde and 1% glutaraldehyde in 0.14 M sodium cacodylate buffer for 3 hours. To preserve plasma membrane integrity, sperm were post-fixed in 1% osmium tetroxide (OSO4) containing 0.1% ruthenium red in 0.14 M cacodylate buffer for 1 hour at 4° C. All samples were dehydrated through an ascending ethanol series, critical point dried, and coated with approximately 2 nm of platinum using ion beam sputtering with argon (4 mA at 10 ke V; Ion Tech Ltd., Middlesex, England). All samples were examined in a Hitachi S-900 SEM at an accelerating voltage of 2 keV. Sperm were observed under low magnification (×2,000-5000) and representative sperm were photographed under intermediate magnification (×18,000-25,000). In each specimen evaluated, at least 200 sperm were scanned for the intactness of sperm acrosomal region.
For transmission electron microscopy, treated sperm were fixed in 3% glutaraldehyde in 5% sucrose in 0.2 M cacodylate buffer for 3 hours at room temperature. The samples were post-fixed in 1% OSO4, 5% sucrose and 0.1% ruthenium red for 2 hours at 4° C. The samples were dehydrated in ascending ethanol series, and embedded in Spurr's epoxy. Thin sections (90 nm) were prepared on a Reichert-Jung Ultracut E and stained with uranyl acetate and lead citrate.

## 5-Bromo-6-methoxy-5,6-dihydro-3′-deoxythymidine 5′-[p-Bromo phenyl methoxyalaninyl phosphate] [WHI-11]
HIV-1
  anti-HIV activity, in words: reduction in the anti-HIV activity
Human sperm
  spermicidal activity, in words: improvement of the spermicidal activity

## 5-bromo-6-methoxy-5,6-dihydro-AZT [WHI-01]
HIV-1
  anti-HIV activity, in words: without significantly decreasing the anti-HIV activity
Human sperm
  EC50: 104 µM

## Cc1cn([C@H]2C[C@H](N=[N+]=[N-])[C@@H](CO)O2)c(=O)[nH]c1=O [AZT, 3′-azido-3′-deoxythymidine, reference compound]
HIV-1; Human immunodeficiency virus 1, PBMC, 168 h, read-out: IC50, HIV-1 replication (p24 antigen)
  IC50: 0.006 µM
Human sperm
  effect on sperm motion parameters (CASA kinematics): did not alter the sperm motion parameters
Human sperm; concentrations as high as 300 μm
  effect on sperm motility: did not affect sperm motility

## COC1N([C@H]2C[C@H](N)[C@@H](CO)O2)C(=O)NC(=O)C1(C)Br (stereo partly shown) [WHI-03, 5-Bromo-6-methoxy-5,6-dihydro-3′-amino-3 ′-deoxythymidine]
HIV-1
  anti-HIV activity, in words: substantially reduced anti-HIV activity
Human sperm; Homo sapiens, Sperm
  EC50: 12 µM
other
  melting point: 188 to 190 °C (dec.)

## 5-Bromo-6-methoxy-5,6-dihydro-3 ′-deoxythymidine 5′-[Phenyl methoxyalaninyl phosphate] [WHI-12]
HIV-1
  anti-HIV activity, in words: reduction in the anti-HIV activity
Human sperm
  spermicidal activity, in words: improvement of the spermicidal activity

## CNc1ccc2oc(C[C@H]3O[C@@]4(CC[C@H]3C)O[C@H]([C@H](C)C(=O)c3ccc[nH]3)[C@H](C)C[C@H]4C)nc2c1C(=O)O [Cal A23187, calcium ionophore (Cal) A23187, reference compound]
Sperm acrosome
  sperm head topography by scanning electron microscopy: blebbing or vesiculation, fenestration, and loss of plasma and acrosomal membranes
